According to patent US6281169A, “Aqueous suspensions of low solubility and low stability water additives” (BioLab Services, Inc., priority 1999, dated 2001):
Read-outs that look alike come from different tables or passages of the source.

Legend:
[1] = cited from earlier work
[2] = cited from earlier work; for hydrolytic stability (in words): background
[3] = system: E. coli (ATCC #11229); experiment: Biocidal efficacy, AOAC Official Method 965.13, gram-negative bacteria; assay type: cell-based
Protocol: (§1) The biocidal efficacy of dissolved BCDMH was compared to sodium hypochlorite using AOAC Official Method 965.13 (1995 Edition)--Disinfectant (Water) for Swimming Pools against the gram-negative bacteria E. coli (ATCC #11229) and the gram-positive bacteria Strep. faecalis (ATCC #6569). The desired nominal biocide dosage (0, 0.1, 0.3, 0.6 or 0.9 mg/l total halogen expressed as chlorine) was established by dilution from freshly prepared (filtered) standardized stock solutions of either BCDMH Powder or NaOCl into phosphate buffered water (approximate pH of 7.5 as described in the method). An inoculum was standardized to yield 2×10^8 organisms per ml. One ml of the standardized inoculum was mixed into 199 ml of phosphate buffered water containing the desired dosage of biocide. One-ml aliquots were removed at specific times (30, 60, 120 and 180 seconds after inoculum addition) and added, with mixing, into separate tubes containing 9 ml of thiosulfate solution to neutralize the oxidizing halogen. Five 1 ml aliquots of from each neutralization tube were then added and mixed into five separate tubes each containing 9 ml of subculture broth. After 48 hours of incubation, these were examined to determine growth or no growth in the subculture medium. […]

[4] = system: Strep. faecalis (ATCC #6569); experiment: Biocidal efficacy, AOAC Official Method 965.13, gram-positive bacteria; assay type: cell-based
Protocol: as §1

[5] = system: bacteria; experiment: Biocidal efficacy comparison, both bacteria (in words); assay type: cell-based, E. coli; Strep. faecalis; conditions: compared with NaOCl, predissolved BCDMH or other Examples
Protocol: The biocidal efficacy of dissolved BCDMH was compared to sodium hypochlorite using AOAC Official Method 965.13 (1995 Edition)--Disinfectant (Water) for Swimming Pools against the gram-negative bacteria E. coli (ATCC #11229) and the gram-positive bacteria Strep. faecalis (ATCC #6569). The desired nominal biocide dosage (0, 0.1, 0.3, 0.6 or 0.9 mg/l total halogen expressed as chlorine) was established by dilution from freshly prepared (filtered) standardized stock solutions of either BCDMH Powder or NaOCl into phosphate buffered water (approximate pH of 7.5 as described in the method). An inoculum was standardized to yield 2×10^8 organisms per ml. One ml of the standardized inoculum was mixed into 199 ml of phosphate buffered water containing the desired dosage of biocide. One-ml aliquots were removed at specific times (30, 60, 120 and 180 seconds after inoculum addition) and added, with mixing, into separate tubes containing 9 ml of thiosulfate solution to neutralize the oxidizing halogen. Five 1 ml aliquots of from each neutralization tube were then added and mixed into five separate tubes each containing 9 ml of subculture broth. After 48 hours of incubation, these were examined to determine growth or no growth in the subculture medium.
The efficacy of this preparation was tested as described in Example 1 except that no stock solution of the preparation was made. […]

[6] = background; cited from earlier work
[7] = 0.1 ppm total halogen as Cl2, 30 sec
[8] = 0.1 ppm total halogen as Cl2, 60 sec
[9] = 0.1 ppm total halogen as Cl2, 120 sec
[10] = 0.1 ppm total halogen as Cl2, 180 sec
[11] = 0.3 ppm total halogen as Cl2, 30 sec
[12] = 0.3 ppm total halogen as Cl2, 60 sec
[13] = 0.3 ppm total halogen as Cl2, 120 sec
[14] = 0.3 ppm total halogen as Cl2, 180 sec
[15] = 0.6 ppm total halogen as Cl2, 30 sec
[16] = 0.6 ppm total halogen as Cl2, 60 sec
[17] = 0.6 ppm total halogen as Cl2, 120 sec
[18] = 0.6 ppm total halogen as Cl2, 180 sec
[19] = 0.9 ppm total halogen as Cl2, 30 sec
[20] = 0.9 ppm total halogen as Cl2, 60 sec
[21] = 0.9 ppm total halogen as Cl2, 120 sec
[22] = 0.9 ppm total halogen as Cl2, 180 sec

## O=[N+]([O-])C(Br)=Cc1ccco1 [BNEF, 2-(2-bromo-2-nitro)-ethenyl furan]
[1]; 25° C.
  solubility in water: 300 ppm
[2]; pH 4, 50° C.
  decomposition half-life: 2.33 h
[2]; pH 4, 60° C.
  decomposition half-life: 1.77 h
[2]; pH 4, 70° C.
  decomposition half-life: 0.817 h
[2]; pH 5, 25° C.
  decomposition half-life: 71 h
[2]; pH 6, 25° C.
  decomposition half-life: 37 h
[2]; pH 9, 25° C.
  decomposition half-life: 6 h

## CC1(C)C(=O)N(Cl)C(=O)N1Br [BCDMH, bromochlorodimethylhydantoin]
[3]; [7]
  Number of Tubes Exhibiting Growth: 5 Tubes (Out of 5)
[3]; [8]
  Number of Tubes Exhibiting Growth: 5 Tubes (Out of 5)
[3]; [9]
  Number of Tubes Exhibiting Growth: 5 Tubes (Out of 5)
[3]; [10]
  Number of Tubes Exhibiting Growth: 5 Tubes (Out of 5)
[3]; [11]
  Number of Tubes Exhibiting Growth: 5 Tubes (Out of 5)
[3]; [12]
  Number of Tubes Exhibiting Growth: 5 Tubes (Out of 5)
[3]; [13]
  Number of Tubes Exhibiting Growth: 5 Tubes (Out of 5)
[3]; [14]
  Number of Tubes Exhibiting Growth: 5 Tubes (Out of 5)
[3]; [15]
  Number of Tubes Exhibiting Growth: 0 Tubes (Out of 5)
[3]; [16]
  Number of Tubes Exhibiting Growth: 0 Tubes (Out of 5)
[3]; [17]
  Number of Tubes Exhibiting Growth: 0 Tubes (Out of 5)
[3]; [18]
  Number of Tubes Exhibiting Growth: 0 Tubes (Out of 5)
[3]; [19]
  Number of Tubes Exhibiting Growth: 0 Tubes (Out of 5)
[3]; [20]
  Number of Tubes Exhibiting Growth: 0 Tubes (Out of 5)
[3]; [21]
  Number of Tubes Exhibiting Growth: 0 Tubes (Out of 5)
[3]; [22]
  Number of Tubes Exhibiting Growth: 0 Tubes (Out of 5)
[4]; [7]
  Number of Tubes Exhibiting Growth: 5 Tubes (Out of 5)
[4]; [8]
  Number of Tubes Exhibiting Growth: 5 Tubes (Out of 5)
[4]; [9]
  Number of Tubes Exhibiting Growth: 5 Tubes (Out of 5)
[4]; [10]
  Number of Tubes Exhibiting Growth: 5 Tubes (Out of 5)
[4]; [11]
  Number of Tubes Exhibiting Growth: 5 Tubes (Out of 5)
[4]; [12]
  Number of Tubes Exhibiting Growth: 5 Tubes (Out of 5)
[4]; [13]
  Number of Tubes Exhibiting Growth: 4 Tubes (Out of 5)
[4]; [14]
  Number of Tubes Exhibiting Growth: 1 Tubes (Out of 5)
[4]; [15]
  Number of Tubes Exhibiting Growth: 0 Tubes (Out of 5)
[4]; [16]
  Number of Tubes Exhibiting Growth: 0 Tubes (Out of 5)
[4]; [17]
  Number of Tubes Exhibiting Growth: 0 Tubes (Out of 5)
[4]; [18]
  Number of Tubes Exhibiting Growth: 0 Tubes (Out of 5)
[4]; [19]
  Number of Tubes Exhibiting Growth: 0 Tubes (Out of 5)
[4]; [20]
  Number of Tubes Exhibiting Growth: 0 Tubes (Out of 5)
[4]; [21]
  Number of Tubes Exhibiting Growth: 0 Tubes (Out of 5)
[4]; [22]
  Number of Tubes Exhibiting Growth: 0 Tubes (Out of 5)
[5]
  biocidal efficacy (in words): approximately the same
[1]; 20° C.
  water solubility: approximately 1,500 mg/liter
[2]
  hydrolytic stability (in words): not hydrolytically stable
[6]
  dissolving behaviour (in words): dissolves slowly

## [Na+].[O-]Cl [NaOCl, sodium hypochlorite]
[3]; [7]
  Number of Tubes Exhibiting Growth: 5 Tubes (Out of 5)
[3]; [8]
  Number of Tubes Exhibiting Growth: 5 Tubes (Out of 5)
[3]; [9]
  Number of Tubes Exhibiting Growth: 5 Tubes (Out of 5)
[3]; [10]
  Number of Tubes Exhibiting Growth: 5 Tubes (Out of 5)
[3]; [11]
  Number of Tubes Exhibiting Growth: 5 Tubes (Out of 5)
[3]; [12]
  Number of Tubes Exhibiting Growth: 5 Tubes (Out of 5)
[3]; [13]
  Number of Tubes Exhibiting Growth: 3 Tubes (Out of 5)
[3]; [14]
  Number of Tubes Exhibiting Growth: 1 Tubes (Out of 5)
[3]; [15]
  Number of Tubes Exhibiting Growth: 0 Tubes (Out of 5)
[3]; [16]
  Number of Tubes Exhibiting Growth: 0 Tubes (Out of 5)
[3]; [17]
  Number of Tubes Exhibiting Growth: 0 Tubes (Out of 5)
[3]; [18]
  Number of Tubes Exhibiting Growth: 0 Tubes (Out of 5)
[4]; [7]
  Number of Tubes Exhibiting Growth: 5 Tubes (Out of 5)
[4]; [8]
  Number of Tubes Exhibiting Growth: 5 Tubes (Out of 5)
[4]; [9]
  Number of Tubes Exhibiting Growth: 5 Tubes (Out of 5)
[4]; [10]
  Number of Tubes Exhibiting Growth: 5 Tubes (Out of 5)
[4]; [11]
  Number of Tubes Exhibiting Growth: 5 Tubes (Out of 5)
[4]; [12]
  Number of Tubes Exhibiting Growth: 5 Tubes (Out of 5)
[4]; [13]
  Number of Tubes Exhibiting Growth: 5 Tubes (Out of 5)
[4]; [14]
  Number of Tubes Exhibiting Growth: 5 Tubes (Out of 5)
[4]; [15]
  Number of Tubes Exhibiting Growth: 0 Tubes (Out of 5)
[4]; [16]
  Number of Tubes Exhibiting Growth: 0 Tubes (Out of 5)
[4]; [17]
  Number of Tubes Exhibiting Growth: 0 Tubes (Out of 5)
[4]; [18]
  Number of Tubes Exhibiting Growth: 0 Tubes (Out of 5)
[5]
  biocidal efficacy (in words): approximately the same

## O=c1[nH]c(=O)[nH]c(=O)[nH]1 [CYA, S-triazine-2,4,6-trione]
[1]; 20° C.
  solubility in water: approximately 2700 ppm
[6]
  dissolving behaviour (in words): fairly tough to dissolve

## CCNc1nc(Cl)nc(NC(C)(C)C)n1 [terbuthylazine, 2-(tert-butylamino)-4-chloro-6-(ethylamino)-s-triazine]
[1]; 25° C.
  solubility in water: 11.5 ppm
[2]
  hydrolytic stability (in words): good hydrolytic stability
[2]; pH 5
  degradation half life: 73 days
[2]; pH 9
  degradation half life: 194 days
